Converted amounts (≈) assume the structure as drawn.

The subject of experiment [1] is Staphylococcus aureus (Smith) ATCC 19636. Nature of the experiment: MIC determination, S. aureus. In kind it is cell-based. To be noted: S. aureus ATCC 19636, 17 h; for MIC: Staphylococcus aureus, ATCC19636. The procedure: (§1) Susceptibility testing for bacterial cultures is performed according to the National Council for Clinical Laboratory Standards (NCCLS) protocol M100-S12, “Performance Standards for Antimicrobial Susceptibility Testing.” The bacterial strains recommended by NCCLS were obtained from the American Type Culutre Collection (ATCC) (Table) and were maintained on Mueller Hinton (MHA) agar plates plus or minus 3% lysed horse blood (see Table). The bacteria were grown in Cation adjusted Mueller Hinton Broth (CaMHB) for liquid growth and susceptibility testing. S. cerevisiae (yeast) is grown in yeast peptone dextrose (YPD) media.
(§2) All bacterial cultures were grown at 37 degrees Celsius. Fresh colonies of S. aureus and MRSA were inoculated into liquid media and grown overnight and diluted the next day to grow to mid-log (Table 2). E. faecalis and S. pneumonia mid-log cultures were started directly from colony on plates. To attain mid-log growth, cultures were grown to an optical density (OD) at A590 of 0.2-0.8 (see Table 2) and then diluted to proper OD to obtain 5×10^5 cells/mL.
(§3) Diluted bacterial cultures are added to compound plates with compound diluted 2-fold from 100 μg/mL to 0.2 μg/mL final concentration in DMSO. Control antibiotics are also added: vancomycin, linezolid, and penicillin. In 384 well plates, 0.5 μL compound is added followed by addition of 50 μL of culture. DMSO alone is included as a control. Plates incubated at 37 degrees Celsius for 17-24 h.
(§4) Plates with cells mixed with compounds are incubated for 17 h for S. aureus and yeast, 24 h for MRSA, and all Enterococcus and Streptococcus strains. Yeast plates are incubated […].
(§5) Viability is determined by reading plates at A590 to determine optical density of treated and untreated cells and determining growth inhibition relative to controls.

Experiment [2] has as its system Methicillin resistant S. aureus ATCC 33591. The experiment can be described thus: MIC determination, MRSA. It counts as cell-based, Staphylococcus aureus. To be noted: MRSA ATCC 33591, 24 h; for MIC: Staphylococcus aureus. The procedure:
as §1, §2, §3, §4, §5

Experiment [3] concerns Penicillin-res. S. pneumonia ATCC 700671. Nature of the experiment: MIC determination, PRSP. In kind it is cell-based, Streptococcus pneumonia. To be noted: ATCC 700671, 24 h. The procedure: as §1, §2, §3, §4, §5

As for `COc1ccc2[nH]cc(CCNC(=O)C3C(CO)C(C(C)O)ON3Cc3ccc(C#Cc4ccc(C)cc4)cc3)c2c1` (centres unmarked), the “MIC S. aureus” value in experiment [1] is “** (the MIC is 5-90 μg/mL)”. In addition, in experiment [2], the “MIC MRSA” value is listed as “* (the MIC is >90 μg/mL)”. The “MIC PRSP” value in experiment [3] was “** (the MIC is 5-90 μg/mL)”.

In the case of `Cc1ccc(C#Cc2ccc(CN3OC(C(C)O)C(CO)C3C(=O)NCCc3c[nH]c4cc(F)ccc34)cc2)cc1` (centres unmarked), the “MIC S. aureus” value in experiment [1] was “*** (the MIC is less than 5 μg/mL)”. In addition, the “MIC MRSA” value in experiment [2] is given as “*** (the MIC is less than 5 μg/mL)”. The “MIC PRSP” value in experiment [3] is given as “** (the MIC is 5-90 μg/mL)”.

For the compound `Cc1ccc(C#Cc2ccc(CN3O[C@@H]([C@@H](C)O)[C@@H](CO)[C@H]3CNCCc3c[nH]c4ccccc34)cc2)cc1`, the minimum inhibitory concentration (MIC) in experiment [1] is 5 to 90 µg/mL (≈ 9.55 to 172 µM); in experiment [2] it was < 5 µg/mL.

With `CC(O)C1ON(Cc2cccc(-c3ccc(C(C)(C)C)cc3)c2)C(C(=O)NCCc2c[nH]c3ccccc23)C1CO` (centres unmarked), the “MIC S. aureus” value in experiment [1] is on record as “*** (the MIC is less than 5 μg/mL)”. Besides, the “MIC MRSA” value in experiment [2] is reported as “*** (the MIC is less than 5 μg/mL)”. The “MIC PRSP” value in experiment [3] is recorded as “** (the MIC is 5-90 μg/mL)”.

Turning to `CCCCCCCCCCCCN1O[C@@H]([C@H](C)O)[C@@H](CO)[C@H]1C(=O)NCCc1c[nH]c2ccccc12`, the minimal inhibitory concentration (MIC) in experiment [1] and in experiment [2] was < 5 µg/mL each time.

With `CC(O)C1ON(Cc2cccc(C=Cc3ccc(Cl)cc3)c2)C(C(=O)NCCc2c[nH]c3ccccc23)C1CO` (centres unmarked), the “MIC S. aureus” value in experiment [1] is on record as “*** (the MIC is less than 5 μg/mL)”. In experiment [2], the “MIC MRSA” value is “*** (the MIC is less than 5 μg/mL)”. Moreover, the “MIC PRSP” value in experiment [3] was “** (the MIC is 5-90 μg/mL)”.

Take `CC(O)C1ON(Cc2ccc(-c3ccc(Cl)cc3)cc2)C(C(=O)NCCc2c[nH]c3ccccc23)C1CO` (centres unmarked): the “MIC S. aureus” value in experiment [1] is on record as “** (the MIC is 5-90 μg/mL)”. Besides, the “MIC MRSA” value in experiment [2] was “** (the MIC is 5-90 μg/mL)”. The “MIC PRSP” value in experiment [3] is listed as “** (the MIC is 5-90 μg/mL)”.

For `O=C(NCCc1c[nH]c2ccccc12)C1C(CO)C(CO)ON1Cc1ccc(C#Cc2ccccc2)cc1` (centres unmarked), the “MIC S. aureus” value in experiment [1] is on record as “** (the MIC is 5-90 μg/mL)”. Also, in experiment [2], the “MIC MRSA” value was “** (the MIC is 5-90 μg/mL)”. Also, the “MIC PRSP” value in experiment [3] is listed as “** (the MIC is 5-90 μg/mL)”.

For the compound `CC(O)C1ON(Cc2cccc(C=Cc3ccccc3)c2)C(C(=O)NCCc2c[nH]c3ccccc23)N1CO` (centres unmarked), the “MIC S. aureus” value in experiment [1] is reported as “** (the MIC is 5-90 μg/mL)”. The “MIC MRSA” value in experiment [2] was “** (the MIC is 5-90 μg/mL)”. In addition, the “MIC PRSP” value in experiment [3] was “** (the MIC is 5-90 μg/mL)”.

For `Cc1ccc(C#Cc2ccc(CN3OC(CN)CC3C(=O)NCCc3c[nH]c4ccccc34)cc2)cc1.Cl` (centres unmarked), in experiment [1], the “MIC S. aureus” value was “** (the MIC is 5-90 μg/mL)”. Moreover, the “MIC MRSA” value in experiment [2] is listed as “** (the MIC is 5-90 μg/mL)”. The “MIC PRSP” value in experiment [3] is given as “** (the MIC is 5-90 μg/mL)”.

With `CC(O)C1ON(Cc2ccc(-c3cc4ccccc4o3)cc2)C(C(=O)NCCc2c[nH]c3ccccc23)C1CO` (centres unmarked), the “MIC S. aureus” value in experiment [1] was “** (the MIC is 5-90 μg/mL)”. Besides, in experiment [2], the “MIC MRSA” value is reported as “** (the MIC is 5-90 μg/mL)”. Further, the “MIC PRSP” value in experiment [3] is reported as “** (the MIC is 5-90 μg/mL)”.

On to `CC(O)C1ON(Cc2ccc(-c3ccc(Oc4ccccc4)cc3)cc2)C(C(=O)NCCc2c[nH]c3ccccc23)C1CO` (centres unmarked), for which the “MIC S. aureus” value in experiment [1] is “** (the MIC is 5-90 μg/mL)”. Also, the “MIC MRSA” value in experiment [2] is reported as “** (the MIC is 5-90 μg/mL)”. For the same compound, the “MIC PRSP” value in experiment [3] is “** (the MIC is 5-90 μg/mL)”.

In the case of `Cc1ccc(C#Cc2ccc(CN3OC(C(C)O)C(COC(=O)CN(C)C)C3C(=O)NCCc3c[nH]c4ccccc34)cc2)cc1` (centres unmarked), the “MIC MRSA” value in experiment [2] is “** (the MIC is 5-90 μg/mL)”. Besides, the “MIC PRSP” value in experiment [3] was “** (the MIC is 5-90 μg/mL)”.

With `CCCCCCCCN1O[C@@H]([C@H](C)O)[C@@H](CO)[C@H]1C(=O)NCCc1c[nH]c2ccccc12`, the MIC in experiment [1] and in experiment [2] was 5 to 90 µg/mL (≈ 11.2 to 202 µM) throughout.

`CC(O)C1ON(Cc2cccc(-c3ccc(Cl)cc3)c2)C(C(=O)NCCc2c[nH]c3ccccc23)C1CO` (centres unmarked): the “MIC S. aureus” value in experiment [1] is recorded as “** (the MIC is 5-90 μg/mL)”. The “MIC MRSA” value in experiment [2] is recorded as “** (the MIC is 5-90 μg/mL)”. In experiment [3], the “MIC PRSP” value is reported as “** (the MIC is 5-90 μg/mL)”.

For the compound `Cc1ccc(C#Cc2ccc(CN3OC(C(C)O)C(CO)C3CNCCc3c[nH]c4ccccc34)cc2)cc1` (centres unmarked), the “MIC S. aureus” value in experiment [1] was “** (the MIC is 5-90 μg/mL)”. Further, the “MIC MRSA” value in experiment [2] was “** (the MIC is 5-90 μg/mL)”. The “MIC PRSP” value in experiment [3] is on record as “* (the MIC is >90 μg/mL)”.

For the compound `CC(O)C1ON(CCCCCCc2ccccc2)C(C(=O)NCCc2c[nH]c3ccccc23)C1CO` (centres unmarked), the “MIC S. aureus” value in experiment [1] is recorded as “** (the MIC is 5-90 μg/mL)”. Further, the “MIC MRSA” value in experiment [2] is given as “** (the MIC is 5-90 μg/mL)”. The “MIC PRSP” value in experiment [3] is recorded as “** (the MIC is 5-90 μg/mL)”.

In the case of `CC(O)C1ON(CCCCCCCCc2ccccc2)C(C(=O)NCCc2c[nH]c3ccccc23)C1CO` (centres unmarked), the “MIC MRSA” value in experiment [2] is on record as “** (the MIC is 5-90 μg/mL)”. In addition, the “MIC PRSP” value in experiment [3] was “** (the MIC is 5-90 μg/mL)”.

As to `CC(O)C1ON(Cc2ccc(-c3ccccc3)cc2)C(C(=O)NCCc2c[nH]c3ccccc23)C1CO` (centres unmarked), in experiment [1], the “MIC S. aureus” value is “** (the MIC is 5-90 μg/mL)”. Further, the “MIC MRSA” value in experiment [2] is “** (the MIC is 5-90 μg/mL)”. For the same compound, in experiment [3], the “MIC PRSP” value is listed as “* (the MIC is >90 μg/mL)”.

As to `CC(O)C1ON(Cc2ccc(Oc3ccccc3)cc2)C(C(=O)NCCc2c[nH]c3ccccc23)C1CO` (centres unmarked), in experiment [1], the “MIC S. aureus” value is given as “** (the MIC is 5-90 μg/mL)”. For the same compound, the “MIC MRSA” value in experiment [2] is recorded as “** (the MIC is 5-90 μg/mL)”. Also, the “MIC PRSP” value in experiment [3] is “** (the MIC is 5-90 μg/mL)”.

Consider `Cc1ccc(C#Cc2ccc(CN3OC(CN)CC3C(=O)NCCc3c[nH]c4ccccc34)cc2)cc1` (centres unmarked), for which the “MIC S. aureus” value in experiment [1] is on record as “** (the MIC is 5-90 μg/mL)”. Further, the “MIC MRSA” value in experiment [2] is recorded as “** (the MIC is 5-90 μg/mL)”. Also, the “MIC PRSP” value in experiment [3] is “** (the MIC is 5-90 μg/mL)”.

Take `Cc1ccc(C#Cc2ccc(CN3OC4CNCC4C3C(=O)NCCc3c[nH]c4ccccc34)cc2)cc1.Cl` (centres unmarked): the MIC in experiment [1] and in experiment [2] was 5 to 90 µg/mL each time.

Consider `CC(O)C1ON(Cc2ccc(C#Cc3cccc(O)c3)cc2)C(C(=O)NCCc2c[nH]c3ccccc23)C1CO` (centres unmarked), for which the “MIC S. aureus” value in experiment [1] is “** (the MIC is 5-90 μg/mL)”. The “MIC MRSA” value in experiment [2] is reported as “** (the MIC is 5-90 μg/mL)”. For the same compound, the “MIC PRSP” value in experiment [3] is “** (the MIC is 5-90 μg/mL)”.

In the case of `CC(O)C1ON(Cc2ccc(C#Cc3ccc(C(=O)O)cc3)cc2)C(C(=O)NCCc2c[nH]c3ccccc23)C1CO` (centres unmarked), the “MIC S. aureus” value in experiment [1] is “* (the MIC is >90 μg/mL)”. For the same compound, the “MIC MRSA” value in experiment [2] is “* (the MIC is >90 μg/mL)”. Further, the “MIC PRSP” value in experiment [3] is on record as “* (the MIC is >90 μg/mL)”.

As for `CC(O)C1ON(Cc2ccc(-c3ccc(C(C)(C)C)cc3)cc2)C(C(=O)NCCc2c[nH]c3ccccc23)C1CO` (centres unmarked), in experiment [1], the “MIC S. aureus” value is listed as “** (the MIC is 5-90 μg/mL)”. Further, the “MIC MRSA” value in experiment [2] was “* (the MIC is >90 μg/mL)”. The “MIC PRSP” value in experiment [3] is reported as “** (the MIC is 5-90 μg/mL)”.

As for `CCCCCCN1O[C@@H]([C@H](C)O)[C@@H](CO)[C@H]1C(=O)NCCc1c[nH]c2ccccc12`, in experiment [1], the “MIC S. aureus” value is reported as “* (the MIC is >90 μg/mL)”. The “MIC MRSA” value in experiment [2] is “* (the MIC is >90 μg/mL)”. Besides, the “MIC PRSP” value in experiment [3] is listed as “* (the MIC is >90 μg/mL)”.

In the case of `Cc1ccc(C#Cc2ccc(CN3OCC(CO)C3C(=O)NCCc3c[nH]c4ccccc34)cc2)cc1` (centres unmarked) [drawing 212], the “MIC MRSA” value in experiment [2] is given as “*** (the MIC is less than 5 μg/mL)”. Also, the “MIC PRSP” value in experiment [3] is “** (the MIC is 5-90 μg/mL)”.

Usually MIC stands for the least concentration at which growth counts as inhibited. Read a low MIC as greater potency.
